Measured values published in US11439615B2, “Lipoxin and lipoxin analogue mediated neuroprotection and treatments” (University Health Network, priority 2017, dated 2022).

What was measured:
HT22 cells = experiment: MitoTracker Red mitochondrial membrane potential in glutamate challenged HT22 cells; assay type: cell-based; settings: 1 μM, HT22 cells challenged with glutamate
From the text: The mechanism of protection was investigated. […] FIG. 15B show quantification of fluorescent intensity per cell (n=3, *p<0.05, **p<0.01, bars represent S.E.M.).

[1] = test system: retinal ganglion cell neurons (RGCs); experiment: Rat chronic IOP (circumlimbal suture) glaucoma model; assay type: in vivo
From the text: A method for reliably inducing sustained IOPs in the rodent eye was recently developed by Liu et al (55, 56). In this minimally invasive approach, a circumlimbal suture is placed to induce chronic ocular hypertension. An advantage of this strategy is that specific IOPs can be targeted and monitored by rebound tonometry, improving the consistency of results. In addition, following suturing elevated IOPs can be maintained for as long as 15 weeks (55). The model reproduces key features of glaucoma, such as; progressive and preferential decline in RGC function starting by week 8, gradual loss of the retinal nerve fiber layer (RNFL) by week 12, and RGC death by week 15, with minimal overt inflammation (55, 57). In the experiments, circumlimbal sutures were placed in the randomized right or left eyes of anesthetized rats using a sterile 8-0 nylon suture. IOP was measured twice a week, and only animals showing sustained elevated IOP over 21 mmHg for the duration of the experiment were included in the analyses. The delivery and dosage of LXB4 was based on previous publications (58-60). Briefly, LXB4 or vehicle were administered starting from week 8 on alternate days. Due to the unstable nature of lipoxins, a hybrid approach was taken to ensure consistent delivery, including both IP delivery (1 μg) and topically to each eye (100 ng). ERG was measured monthly to assess RGC functional changes using the positive scotopic threshold response (pSTR), which has been used to measure the impact of elevated chronic IOP in rats (55, 61). In addition, RNFL and total retinal thickness were quantified once a month using optical coherence tomography (OCT). After 15 weeks, animals were euthanized and RGC numbers were counted on middle and peripheral quadrants of retinal flatmounts following immunofluorescent staining for the RGC marker BRN3a as above.
Therapeutic LXB4 treatment rescues RGC function in a chronic IOP dependent glaucoma model. To assess whether LXB4 action extends beyond acute stress models, it was investigated if it provides RGC protection in a chronic model more relevant to human neurodegenerative disease. For this purpose a recently described rat perilimbal suture model of glaucoma was used, in which moderately elevated intraocular pressure (IOP) can be consistently maintained over 15 weeks (55, 57). Elevated IOP is the primary clinical glaucoma risk factor, and this model results in similar compromised RGC function, reduced nerve fiber layer (NFL) thickness, and death of RGCs by week 15 (55). […] Therefore, this time point was chosen to initiate an experiment in which therapeutic treatment with LXB4 or vehicle was administered to sutured rats starting at week 8, with longitudinal and pathological assessment of RGC function and survival (FIG. 6A).
LXB4 or vehicle treatment of sutured rats was initiated after 8 weeks of elevated IOP, and was delivered on alternate days until week 15. A control group was treated with vehicle only. Additionally, for each rat increased IOP was induced in the unilaterally, with the contralateral eye serving as control. IOP was monitored twice weekly throughout the experiment. As functional and structural endpoints, electroretinograms (ERG) and optical coherence tomography (OCT) were measured at week 0 (before placing the suture), and on weeks 4, 8, and 12, and 15 of elevated IOP.
In vehicle eyes there were 35% and 30% fewer BRN3a positive RGCs in sutured eyes compared to contralateral controls in the […], respectively (FIG. 7A-FIG. 7B).

CCCCC[C@H](O)[C@H](O)/C=C/C=C/C=C\C=C\[C@@H](O)CCCC(=O)O [LXB4, 5S,14R,15S-trihydroxy-6E,8Z,10E,12E-eicosatetraenoic acid]
glutamate induced increase in mitochondrial membrane potential (MitoTracker Red) (HT22 cells): blocked the glutamate induced increase in mitochondrial membrane potential | RGC function, positive scotopic threshold response (pSTR, ERG) ([1]; IP 1 μg and topical 100 ng on alternate days from week 8 to 15, by week 12, vs vehicle): significant recovery | IOP levels compared to vehicle treated group ([1]; measured twice weekly throughout): did not differ | a-wave (photoreceptor) and b-wave (bipolar cell) ERG signals ([1]; treatment week 8 to 15): no LXB4 effects | total retinal thickness (OCT) ([1]; treatment week 8 to 15): not affected | RNFL thickness loss (OCT) ([1]; treatment week 8 to 15, by week 15, vs vehicle): partially rescued | BRN3a positive RGCs on retinal flatmounts, inner and outer retina ([1]; week 15, vs vehicle): significant rescue of RGCs
